Results from patent US9364467B2 (Salix Pharmaceuticals, Ltd, priority 2012, dated 2016).
In brackets after ≈: the same amount, converted by molar mass. Read-outs that look alike come from different tables or passages of the source.

How the values were obtained:
[1] = Screen at 10 μM against 168 targets; type: binding
[2] = test system: S. haemolyticus; test: In vitro activity (MIC) against S. haemolyticus strains; conditions: Staphylococcus haemolyticus
[3] = test system: Staphylococcus spp. strains; test: In vitro activity (MIC) against Staphylococcus spp. strains; conditions: for MIC50 / MIC90 / MIC: Staphylococcus
[4] = test system: Enterococcus spp. strains; test: In vitro activity (MIC) against Enterococcus spp. strains
[5] = read-out: Mode (MIC), Staphylococcus spp. strains
[6] = Enterococcus, read-out: Mode (MIC), Enterococcus spp. strains

## COC1/C=C/O[C@@]2(C)Oc3c(C)c(O)c4c(O)c(c5c(c4c3C2=O)NC2C=C(C)C=CN52)NC(=O)/C(C)=C\C=C\C(C)C(O)C(C)C(O)C(C)C(O)C1C (stereo partly shown) [25-desacetyl rifaximin]
[1]
  hits (50% effect, either inhibition or stimulation) in screen against 168 targets: two “hits”
[2]; strain S. haemolyticus 243
  MIC: 0.5 mg/L (≈ 0.67 µM)
[2]; strain S. haemolyticus 276
  MIC: 1 mg/L (≈ 1.34 µM)
[2]; strain S. haemolyticus 955
  MIC: 1 mg/L (≈ 1.34 µM)
[2]; strain S. haemolyticus 982
  MIC: 0.5 mg/L (≈ 0.67 µM)
[3]
  MIC50: 2 mg/L (≈ 2.68 µM)
  MIC90: 16 mg/L (≈ 21.5 µM)
[3]; [5]
  MIC: 2 mg/L (≈ 2.68 µM)
[3]; strain S. spp. 1102
  MIC: 1 mg/L (≈ 1.34 µM)
[3]; strain S. spp. 1187
  MIC: 2 mg/L (≈ 2.68 µM)
[3]; strain S. spp. 1195
  MIC: 0.12 mg/L (≈ 0.161 µM)
[3]; strain S. spp. 1256
  MIC: 4 mg/L (≈ 5.36 µM)
[3]; strain S. spp. 1312
  MIC: 4 mg/L (≈ 5.36 µM)
[3]; strain S. spp. 1689
  MIC: 4 mg/L (≈ 5.36 µM)
[3]; strain S. spp. 1745
  MIC: 0.25 mg/L (≈ 0.335 µM)
[4]; ATCC E. faecalis 29212
  MIC: 16 mg/L (≈ 21.5 µM)
[4]; E. faecalis 181
  MIC: > 16 mg/L
[4]; E. faecalis 186
  MIC: 4 mg/L (≈ 5.36 µM)
[4]; E. faecalis 187
  MIC: 4 mg/L (≈ 5.36 µM)
[4]; E. faecalis 193
  MIC: 4 mg/L (≈ 5.36 µM)
[4]; E. faecalis 194
  MIC: > 16 mg/L
[4]; E. faecalis 200
  MIC: > 16 mg/L
[4]; E. faecalis 204
  MIC: 4 mg/L (≈ 5.36 µM)
[4]; E. faecalis 205
  MIC: > 16 mg/L
[4]; E. faecalis 210
  MIC: 4 mg/L (≈ 5.36 µM)
[4]; E. faecalis 227
  MIC: > 16 mg/L
[4]; E. faecalis 228
  MIC: 4 mg/L (≈ 5.36 µM)
[4]; E. faecalis 232
  MIC: 4 mg/L (≈ 5.36 µM)
[4]; E. faecalis 235
  MIC: > 16 mg/L
[4]; E. faecalis 237
  MIC: 4 mg/L (≈ 5.36 µM)
[4]; E. faecalis 239
  MIC: > 16 mg/L
[4]; E. faecalis 242
  MIC: > 16 mg/L
[4]; E. faecalis 243
  MIC: > 16 mg/L
[4]; E. faecalis 245
  MIC: > 16 mg/L
[4]; E. faecalis 249
  MIC: 4 mg/L (≈ 5.36 µM)
[4]; E. faecalis 250
  MIC: > 16 mg/L
[4]; E. faecalis 251
  MIC: > 16 mg/L
[4]; E. faecalis 255
  MIC: 4 mg/L (≈ 5.36 µM)
[4]; E. faecium 8
  MIC: 4 mg/L (≈ 5.36 µM)
[4]; E. faecium 13
  MIC: 4 mg/L (≈ 5.36 µM)
[4]; E. faecium 174
  MIC: > 16 mg/L
[4]; E. faecium 185
  MIC: > 16 mg/L
[4]; E. faecium 188
  MIC: > 16 mg/L
[4]; E. faecium 189
  MIC: 8 mg/L (≈ 10.7 µM)
[4]; E. faecium 190
  MIC: > 16 mg/L
[4]; E. faecium 191
  MIC: > 16 mg/L
[4]; E. faecium 192
  MIC: 8 mg/L (≈ 10.7 µM)
[4]; E. faecium 198
  MIC: > 16 mg/L
[4]; E. faecium 199
  MIC: > 16 mg/L
[4]; E. faecium 201
  MIC: > 16 mg/L
[4]; E. faecium 203
  MIC: 8 mg/L (≈ 10.7 µM)
[4]; E. faecium 207
  MIC: > 16 mg/L
[4]; E. faecium 208
  MIC: 4 mg/L (≈ 5.36 µM)
[4]; E. faecium 209
  MIC: > 16 mg/L
[4]; E. faecium 212
  MIC: > 16 mg/L
[4]; E. faecium 215
  MIC: > 16 mg/L
[4]; E. faecium 217
  MIC: 4 mg/L (≈ 5.36 µM)
[4]; E. faecium 221
  MIC: > 16 mg/L
[4]; E. faecium 222
  MIC: > 16 mg/L
[4]; E. faecium 223
  MIC: > 16 mg/L
[4]; E. faecium 225
  MIC: > 16 mg/L
[4]; E. faecium 229
  MIC: 8 mg/L (≈ 10.7 µM)
[4]; E. faecium 230
  MIC: 4 mg/L (≈ 5.36 µM)
[4]; E. faecium 231
  MIC: > 16 mg/L
[4]; E. faecium 236
  MIC: 4 mg/L (≈ 5.36 µM)
[4]; E. faecium 238
  MIC: > 16 mg/L
[4]; E. faecium 240
  MIC: > 16 mg/L
[4]; E. faecium 248
  MIC: > 16 mg/L
[4]; Enterococcus
  MIC50: > 16 mg/L
  MIC90: > 16 mg/L
[4]; [6]
  MIC: > 16 mg/L

## CO[C@H]1/C=C/O[C@@]2(C)Oc3c(C)c(O)c4c(O)c(c5c(nc6cc(C)ccn65)c4c3C2=O)NC(=O)/C(C)=C\C=C\[C@H](C)[C@H](O)[C@@H](C)[C@@H](O)[C@@H](C)[C@H](OC(C)=O)[C@@H]1C [Rifaximin, reference compound]
[2]; strain S. haemolyticus 243
  MIC: 0.06 mg/L (≈ 0.0763 µM)
[2]; strain S. haemolyticus 276
  MIC: 0.12 mg/L (≈ 0.153 µM)
[2]; strain S. haemolyticus 955
  MIC: 0.12 mg/L (≈ 0.153 µM)
[2]; strain S. haemolyticus 982
  MIC: 0.06 mg/L (≈ 0.0763 µM)
[3]
  MIC50: 0.25 mg/L (≈ 0.318 µM)
  MIC90: 1 mg/L (≈ 1.27 µM)
[3]; Staphylococcus spp. strains
  Range (MIC): 0.03 to 1 mg/L
[3]; [5]
  MIC: 0.5 mg/L (≈ 0.636 µM)
[3]; strain S. spp. 1102
  MIC: 0.06 mg/L (≈ 0.0763 µM)
[3]; strain S. spp. 1187
  MIC: 0.03 mg/L (≈ 0.0382 µM)
[3]; strain S. spp. 1195
  MIC: 0.06 mg/L (≈ 0.0763 µM)
[3]; strain S. spp. 1256
  MIC: 0.12 mg/L (≈ 0.153 µM)
[3]; strain S. spp. 1312
  MIC: 0.25 mg/L (≈ 0.318 µM)
[3]; strain S. spp. 1689
  MIC: 1 mg/L (≈ 1.27 µM)
[3]; strain S. spp. 1745
  MIC: 0.06 mg/L (≈ 0.0763 µM)
[4]; ATCC E. faecalis 29212
  MIC: 4 mg/L (≈ 5.09 µM)
[4]; E. faecalis 181
  MIC: 4 mg/L (≈ 5.09 µM)
[4]; E. faecalis 186
  MIC: 4 mg/L (≈ 5.09 µM)
[4]; E. faecalis 187
  MIC: 4 mg/L (≈ 5.09 µM)
[4]; E. faecalis 193
  MIC: 4 mg/L (≈ 5.09 µM)
[4]; E. faecalis 194
  MIC: 4 mg/L (≈ 5.09 µM)
[4]; E. faecalis 200
  MIC: > 16 mg/L
[4]; E. faecalis 204
  MIC: 4 mg/L (≈ 5.09 µM)
[4]; E. faecalis 205
  MIC: 4 mg/L (≈ 5.09 µM)
[4]; E. faecalis 210
  MIC: 4 mg/L (≈ 5.09 µM)
[4]; E. faecalis 227
  MIC: > 16 mg/L
[4]; E. faecalis 228
  MIC: 4 mg/L (≈ 5.09 µM)
[4]; E. faecalis 232
  MIC: 4 mg/L (≈ 5.09 µM)
[4]; E. faecalis 235
  MIC: 16 mg/L (≈ 20.4 µM)
[4]; E. faecalis 237
  MIC: 4 mg/L (≈ 5.09 µM)
[4]; E. faecalis 239
  MIC: 8 mg/L (≈ 10.2 µM)
[4]; E. faecalis 242
  MIC: > 16 mg/L
[4]; E. faecalis 243
  MIC: 16 mg/L (≈ 20.4 µM)
[4]; E. faecalis 245
  MIC: > 16 mg/L
[4]; E. faecalis 249
  MIC: 4 mg/L (≈ 5.09 µM)
[4]; E. faecalis 250
  MIC: 4 mg/L (≈ 5.09 µM)
[4]; E. faecalis 251
  MIC: 8 mg/L (≈ 10.2 µM)
[4]; E. faecalis 255
  MIC: 4 mg/L (≈ 5.09 µM)
[4]; E. faecium 8
  MIC: 4 mg/L (≈ 5.09 µM)
[4]; E. faecium 13
  MIC: 4 mg/L (≈ 5.09 µM)
[4]; E. faecium 174
  MIC: 8 mg/L (≈ 10.2 µM)
[4]; E. faecium 185
  MIC: > 16 mg/L
[4]; E. faecium 188
  MIC: 8 mg/L (≈ 10.2 µM)
[4]; E. faecium 189
  MIC: 4 mg/L (≈ 5.09 µM)
[4]; E. faecium 190
  MIC: 16 mg/L (≈ 20.4 µM)
[4]; E. faecium 191
  MIC: > 16 mg/L
[4]; E. faecium 192
  MIC: 2 mg/L (≈ 2.54 µM)
[4]; E. faecium 198
  MIC: 16 mg/L (≈ 20.4 µM)
[4]; E. faecium 199
  MIC: 8 mg/L (≈ 10.2 µM)
[4]; E. faecium 201
  MIC: 16 mg/L (≈ 20.4 µM)
[4]; E. faecium 203
  MIC: 4 mg/L (≈ 5.09 µM)
[4]; E. faecium 207
  MIC: 4 mg/L (≈ 5.09 µM)
[4]; E. faecium 208
  MIC: 2 mg/L (≈ 2.54 µM)
[4]; E. faecium 209
  MIC: 16 mg/L (≈ 20.4 µM)
[4]; E. faecium 212
  MIC: > 16 mg/L
[4]; E. faecium 215
  MIC: > 16 mg/L
[4]; E. faecium 217
  MIC: 8 mg/L (≈ 10.2 µM)
[4]; E. faecium 221
  MIC: 8 mg/L (≈ 10.2 µM)
[4]; E. faecium 222
  MIC: > 16 mg/L
[4]; E. faecium 223
  MIC: > 16 mg/L
[4]; E. faecium 225
  MIC: 4 mg/L (≈ 5.09 µM)
[4]; E. faecium 229
  MIC: 2 mg/L (≈ 2.54 µM)
[4]; E. faecium 230
  MIC: 8 mg/L (≈ 10.2 µM)
[4]; E. faecium 231
  MIC: 16 mg/L (≈ 20.4 µM)
[4]; E. faecium 236
  MIC: 2 mg/L (≈ 2.54 µM)
[4]; E. faecium 238
  MIC: 16 mg/L (≈ 20.4 µM)
[4]; E. faecium 240
  MIC: > 16 mg/L
[4]; E. faecium 248
  MIC: > 16 mg/L
[4]; Enterococcus
  MIC50: 8 mg/L (≈ 10.2 µM)
  MIC90: > 16 mg/L
[4]; [6]
  MIC: 4 mg/L (≈ 5.09 µM)
